Data set [1] in a line: In vitro biodegradation: hydrolysis with release of Isopaque in Seronorm, pH 7.4, 37° C (HPLC). The following applies: seronorm serum, Seronorm (0.5 mg/ml), read-out: substance hydrolysed after 6 hours in Seronorm. Type of data set: in vitro ADME. As to the method: The following Examples are given by way of illustration only. Seronorm is a test serum available from Nycomed AS, Oslo, Norway.
(§1) The powdered product of Example 1 was suspended in Seronorm (0.5 mgml) at pH 7.4 and agitated at 37° C. As a control the experiment was also performed in phosphate buffered saline (PBS) at pH 7.4. At different time points samples were taken from the supernatant after centrifugation of the vial (4000 rpm, 10 rain). The release of Isopaque (5-(N-acetylamino)-3-(N-acetyl-N-methylamino)-2,4,6-triiodobenzene carboxylic acid) was analysed by HPLC. After 6 hours 100% of the substance was hydrolysed. In PBS only 1.1% was hydrolysed during the same period.

Data set [2] is described as follows: In vitro biodegradation control: hydrolysis in phosphate buffered saline (PBS), pH 7.4. The data set is classed as physicochemical. Particulars: read-out: substance hydrolysed in PBS. As to the method: as §1
In a further data set the test system is hepatocytes. Particulars: in vivo, iv; cited from earlier work.
For a further data set, the system named is liver. Nature of the data set: CT studies in rabbit: contrast enhancement in the liver. The data set is classed as in vivo, rabbits. The following applies: dynamic CT, iohexol 350 mg I/ml. The protocol:
Contrast enhancement in the liver was investigated in rabbits. Anaesthetized animals were placed in a Siemens CT scanner and injected with particles of Pharmaceutical Formulation 4 in the marginal ear vein. Particle concentration was 28 mg/ml. A particle dose corresponding to 75 mg I/kg gave an increase in liver contrast from a basal level of […] to about 120 HU. Thus, the contrast enhancement on this dose level was about 35-40 HU. […] The average iodine content in these livers was 1.1 mg I/g liver. […] About 8 times more iodine had to be injected in these animals to achieve the same contrast enhancement of the liver. With this vascular contrast medium, the enhancement was transient, lasting for one or two minutes.

Each structure is given as a SMILES string.

On to `CCOC(=O)OC(C)OC(=O)c1c(I)c(NC(C)=O)c(I)c(N(C)C(C)=O)c1I` (stereo not drawn) [Example 1, 1-(Ethyloxycarbonyloxy)ethyl 5-(N-acetylamino)-3-(N-acetyl-N-methylamino)-2,4,6-triiodobenzenecarboxylate], for which the metabolised at 6 h in data set [1] was found to be 100%. The degraded at 6 h in data set [2] was determined as 1.1%.

As for `CCOC(=O)c1c(I)cc(I)c(NC(=O)CCCCC(=O)Nc2c(I)cc(I)c(C(=O)OCC)c2I)c1I` [ethyl ester of iodipamide, ethyl ester of the water soluble X-ray contrast agent, iodipamide], in the data set on hepatocytes, the “lipid vacuoles in the hepatocytes” value was “increase in lipid vacuoles in the hepatocytes”.

As for `CC(=O)N(CC(O)CO)c1c(I)c(C(=O)NCC(O)CO)c(I)c(C(=O)NCC(O)CO)c1I` (stereo not drawn) [iohexol], in the data set with liver, the duration of enhancement result was “one or two”; the “iodine to be injected to achieve the same contrast enhancement of the liver, relative to Pharmaceutical Formulation 4” value is “About 8 times”; the “nature of enhancement with vascular contrast medium” value is “transient”.

The record behind these values is patent US5370861A, “Iodinated esters contrast medium and use” (Nycomed Imaging AS, priority 1989, dated 1994).
